Laboratory results as given in ChEMBL document CHEMBL5390207, “Cyclotheonellazoles D-I, Potent Elastase Inhibitory Thiazole-Containing Cyclic Peptides from Theonella sp. (2131)” (J Nat Prod, 2023).
Active and inactive are the calls of the source. The rule behind the calls is not given here. Starred links: 1 amine or outer side, 2 acyl side, 3 side chain; linkers in the order of their positions; H or OH if unused. Positions of bridges follow the written chain, without caps; N, C: chain ends. Non-standard residues stand in square brackets, D forms with d. Residues, ends and D or L forms follow the SMILES beside them. X2 = O=C(/C=C/c1csc([C@H](Cc2ccc(O)cc2)N[*:1])n1)[*:2]; X1 = CC[C@H](C)[C@H](N[*:1])C(=O)C(=O)[*:2]; Cya = N[C@@H](CS(=O)(=O)O)C(=O)O; Nva = CCC[C@H](N)C(=O)O; Abu = CC[C@H](N)C(=O)O; Dap = NC[C@H](N)C(=O)O

Tests used:
[1] = molecular target: Chymotrypsinogen A (Bos taurus, UniProt P00766); assay: Inhibition of bovine pancreatic alpha chymotrypsin using N-succinyl-Gly-Gly-Phe-p-nitroanilide as substrate preincubated with enzyme for 10 mins followed by substrate addition and measured for 30 mins
[2] = Inhibition of porcine pancreatic elastase using N-succinyl-Ala-Ala-Ala-p-nitroanilide as substrate preincubated with enzyme for 15 mins followed by substrate addition and measured for 30 mins; design: species or system Sus scrofa
[3] = system: MDA-MB-231; assay: Cytotoxicity against human MDA-MB-231 cells assessed as cell viability upto 100 uM incubated for 72 hrs by resazurin dye based fluorescence assay; assay type: functional
[4] = system: HCT-116; assay: Cytotoxicity against human HCT-116 cells assessed as cell viability upto 100 uM incubated for 72 hrs by resazurin dye based fluorescence assay; assay type: functional
[5] = system: OVCAR; assay: Cytotoxicity against human OVCAR cells assessed as cell viability upto 100 uM incubated for 72 hrs by resazurin dye based fluorescence assay; assay type: functional
[6] = system: KB; assay: Cytotoxicity against human KB cells assessed as reduction in cell viability; assay type: functional, cell-based
[7] = system: L1210; assay: Cytotoxicity against mouse L1210 cells assessed as reduction in cell viability; assay type: functional, cell-based
[8] = molecular target: Replicase polyprotein 1ab (Severe acute respiratory syndrome coronavirus 2, UniProt P0DTD1); assay: Inhibition of SARS-CoV-2 3CLpro incubated for 4 hrs
[9] = system: HCT-116; assay: Cytotoxicity against human HCT-116 cells assessed as cell viability at >20 uM incubated for 72 hrs by resazurin dye based fluorescence assay; assay type: functional
[10] = system: OVCAR; assay: Cytotoxicity against human OVCAR cells assessed as cell viability at > 20 uM incubated for 72 hrs by resazurin dye based fluorescence assay; assay type: functional
[11] = system: MDA-MB-231; assay: Cytotoxicity against human MDA-MB-231 cells assessed as cell viability at >20 uM incubated for 72 hrs by resazurin dye based fluorescence assay; assay type: functional

| Compound | IC50 [1] [nM] | IC50 [2] [nM] | Activity [3] | Activity [4] | Activity [5] | IC50 [8] [nM] | further results |
| --- | --- | --- | --- | --- | --- | --- | --- |
| CCC[C@@H]1NC(=O)[C@@H](N2C(=O)N[C@@H](C)C2=O)CNC(=O)[C@H](CS(=O)(=O)O)NC(=O)/C=C/c2csc(n2)[C@H](Cc2ccc(O)cc2)NC(=O)C(=O)[C@H]([C@@H](C)CC)NC1=O | 2500 | 34.8 | inactive | inactive | inactive |  |  |
| CC(C)C[C@@H]1NC(=O)[C@H](NC(=O)N[C@@H](Cc2ccccc2)C(=O)O)CCCCNC(=O)[C@H](Cc2ccccc2)NC(=O)[C@H](Cc2c[nH]c3cc(Cl)ccc23)N(C)C(=O)[C@H](CC(C)C)NC1=O |  |  |  |  |  | 4600 | IC50 [6]: 970 nM; IC50 [7]: 500 nM; Activity [9]: Active; Activity [10]: Active; Activity [11]: Active |
| CC(C)C[C@@H]1NC(=O)[C@H](NC(=O)N[C@@H](Cc2ccccc2)C(=O)O)CCCCNC(=O)[C@H](Cc2ccccc2)NC(=O)[C@H](Cc2c[nH]c3cc(Cl)c(O)cc23)N(C)C(=O)[C@H](CC(C)C)NC1=O | 730 | 51.3 |  |  |  | 1100 |  |
| CC[C@@H]1NC(=O)[C@@H](NC(=O)[C@H](C)N)CNC(=O)[C@H](CS(=O)(=O)O)NC(=O)/C=C/c2csc(n2)[C@H](Cc2ccc(O)cc2)NC(=O)C(=O)[C@H]([C@@H](C)CC)NC1=O (H-A[Dap][Abu][X1][X2][Cya]; lactam 2-C) | 1600 | 16 |  |  |  |  |  |
| O=S(=O)(F)Cc1ccccc1 [PHENYLMETHYLSULFONYLFLUORIDE] | 420 | 138 |  |  |  |  |  |
| CC[C@H](C)[C@@H]1NC(=O)[C@H](CC(C)C)NC(=O)[C@@H](NC(=O)[C@H](C)N)CNC(=O)[C@H](CS(=O)(=O)O)NC(=O)/C=C/c2csc(n2)[C@H](Cc2ccc(O)cc2)NC(=O)C1=O (H-A[Dap]L[X1][X2][Cya]; lactam 2-C) | 2000 | 28 |  |  |  | 6100 |  |
| CC[C@H](C)[C@@H]1NC(=O)[C@H](CC(C)C)NC(=O)[C@@H](N2C(=O)N[C@@H](C)C2=O)CNC(=O)[C@H](CS(=O)(=O)O)NC(=O)/C=C/c2csc(n2)[C@H](Cc2ccc(O)cc2)NC(=O)C1=O | 1900 | 17.6 | inactive | inactive | inactive |  |  |
| CCC[C@@H]1NC(=O)[C@@H](NC(=O)[C@H](C)N)CNC(=O)[C@H](CS(=O)(=O)O)NC(=O)/C=C/c2csc(n2)[C@H](Cc2ccc(O)cc2)NC(=O)C(=O)[C@H]([C@@H](C)CC)NC1=O (H-A[Dap][Nva][X1][X2][Cya]; lactam 2-C) | 2400 | 20.1 |  |  |  | 16100 |  |
| CC[C@@H]1NC(=O)[C@@H](N2C(=O)N[C@@H](C)C2=O)CNC(=O)[C@H](CS(=O)(=O)O)NC(=O)/C=C/c2csc(n2)[C@H](Cc2ccc(O)cc2)NC(=O)C(=O)[C@H]([C@@H](C)CC)NC1=O | 2700 | 61.8 | inactive | inactive | inactive |  |  |
